Earlier results as cited in patent EP2085120A1, “The use of substances for the treatment of central or peripheral insulin receptor impairment and insulin resistance” (Merz Pharma GmbH & Co. KGaA, priority 2008, dated 2009).

Tested on: cultured hippocampal and cortical neurons
Conditions: cultured hippocampal and cortical neurons pretreated with ADDLs or ADDL/glutamate; addition of an NMDA receptor antagonist

CC12CC3CC(C)(C1)CC(N)(C3)C2 [memantine]
ADDL and glutamate-induced decreased insulin sensitivity: reversible
